From patent US11975044B2, “Methods for treating cancers using fat specific protein 27 (FSP27) compositions” (Ohio University, priority 2017, dated 2024)
Like-named read-outs stand apart in the source and are kept apart here. Residues, ends and D or L forms follow the SMILES beside them. No end group written: not given here.

Key:
Assay type in all cases: cell-based
[1] = tested on: HepG2 human liver cancer (hepatocellular carcinoma) cells; assay: cells; conditions: for efficacy in inhibiting cell viability: human liver cancer, 50 nM; for inhibition of cell viability: human, 100 nM
Experimental: (§1) Human cancer cell lines (part of NCI-60 panel of human cancer cells)—SK-MEL-5 (melanoma), SK-MEL-28 (melanoma), MCF-7 (breast cancer), 786-0 (renal cancer), A498 (renal cancer), Hep-G2 (liver cancer), SK-HEP-1 (liver cancer), PANC-1 (pancreatic cancer), and normal human skin fibroblast cells MALME-3 cells were obtained from American Type Culture Collection (ATCC; Manassas, VA). The cells were grown and maintained in corresponding complete growth medium—PANC-1 in DMEM medium (ATCC), 786-0 in RPMI-1640 medium, remaining cell lines in EMEM media (ATCC), and MALME-3 in McCoy's medium (ATCC)—as indicated by ATCC protocols. Complete growth media was supplemented with 10% fetal bovine serum (FBS; ATCC) and 1× antibiotic-antimycotic (Thermo Fisher Scientific, Waltham, MA). MALME-3 cells were grown in McCoy's medium (ATCC) supplemented with 15% FBS and 1× antibiotic-antimycotic. Cells were grown at 37C/5% CO2 in a humidified incubator. Media was replaced every third day.
(§2) Recombinant hGH was purchased from Antibodies Online (Atlanta, GA), GH antagonist (GHA; Somavert) was obtained from Pfizer (New York City, NY), full length CIDEC was purchased from Abcam (Cambridge, UK) and CIDEC fragment peptides were synthesized at Genscript (Piscataway, NJ). No hGH or GHA was present in the media or added externally unless specifically mentioned. For hGH treatment, 16 hr. after cell seeding (or 24 hr. post-transfection), any GH or GHA or CIDEC or peptides were added at specific concentrations. […]
(§3) A resazurin based absorption assay was performed measuring cell proliferation, as a measure of inhibition of cell growth/viability. There are several commonly practiced assays using tetrazolium (MTT, MTS, XTT), or resazurin which give a quantitative reflection of cell viability. Although ATP detection assay is the most sensitive of the available options, resazurin-based assay is considered adequate and is routinely used to measure compound EC50s or cell viability following cytotoxic treatments. A stock solution of 1% (w/v) resazurin (Sigma-Aldrich #R7017) in 1×PBS was made and filter-sterilized. The final concentration of resazurin in the assay was 0.004%. Proliferating cells can be quantified by spectrophotometric measurement of a bright pink fluorescent product called resorufin (stable for >4 hr) formed when mildly fluorescent blue resazurin enters a reducing intracellular environment characteristic of proliferating cells. Cells were seeded at 10,000 cells/cm^2 into 96-well plates and transfected as described above. The resazurin assay was performed following the respective treatment periods and resorufin absorbance was measured at 570 nm (reference wavelength=600 nm) using Spectramax250 (Molecular Devices, Sunnyvale, CA) and SoftmaxPro software. In all cases, cells were incubated at 37C/5% CO2 for 1 hr following resazurin addition. The resazurin assay for cell proliferation was used to measure EC-50 of relevant drugs and Graph Pad Prism was used to calculate EC-50 shifts (EC50 shift=EC50 of treated cell line/EC50 of parental cell line.
A 1% (w/v) resazurin (Sigma-Aldrich) solution in 1×PBS was made and filter-sterilized. The final concentration of resazurin in the assay was 0.004%. Inside the proliferating cells mildly fluorescent blue resazurin is reduced to a bright pink fluorescent product called resorufin (stable for 4 hr), which is a quantitative measure of the percentage of proliferating cells. In all cases, cells were incubated at 37C/5% CO2 for 45-60 minutes for adequate sensitivity of detection. Briefly, cells were seeded at 10,000 cells/cm^2 into 96-well plates and transfected as described above. The resazurin assay was performed 60 hr after transfection (unless specified otherwise) and resorufin absorbance was measured at 570 nm (reference wavelength=600 nm) using Spectramax250 (Molecular Devices) and SoftmaxPro v4.7.1 software. […]

[2] = tested on: SK-MEL-28 human melanoma cells; conditions: 48 hr; for efficacy in inhibiting cell viability: human melanoma, 50 nM; for inhibition of cell viability: human, 100 nM
Excerpt: FIG. 10: Effect of CIDEC and fragment peptides on human melanoma cell (SK-MEL-28) viability. [full-length CIDEC, #1, #2, #4, #5, #6=shorter fragment peptides of full-length CIDEC]; Cell: human melanoma cells SK-MEL-28; Assay: Cell viability assay (Presto-Blue, Invitrogen); Doses (nM): 0, 50, 100; Treatment period (hr): 48.
as §1
Recombinant hGH was purchased from Antibodies Online (Atlanta, GA), GH antagonist (GHA; Somavert) was obtained from Pfizer (New York City, NY), full length CIDEC was purchased from Abcam (Cambridge, UK) and CIDEC fragment peptides were synthesized at Genscript (Piscataway, NJ). No hGH or GHA was present in the media or added externally unless specifically mentioned. […]
(§4) A resazurin based absorption assay was performed measuring cell proliferation, as a measure of inhibition of cell growth/viability. There are several commonly practiced assays using tetrazolium (MTT, MTS, XTT), or resazurin which give a quantitative reflection of cell viability. […] Proliferating cells can be quantified by spectrophotometric measurement of a bright pink fluorescent product called resorufin (stable for >4 hr) formed when mildly fluorescent blue resazurin enters a reducing intracellular environment characteristic of proliferating cells. […] The resazurin assay was performed following the respective treatment periods and resorufin absorbance was measured at 570 nm (reference wavelength=600 nm) using Spectramax250 (Molecular Devices, Sunnyvale, CA) and SoftmaxPro software. […]
A 1% (w/v) resazurin (Sigma-Aldrich) solution in 1×PBS was made and filter-sterilized. […] Inside the proliferating cells mildly fluorescent blue resazurin is reduced to a bright pink fluorescent product called resorufin (stable for 4 hr), which is a quantitative measure of the percentage of proliferating cells. […]

[3] = tested on: 786-O human renal cancer (clear cell renal cell carcinoma) cells; conditions: for efficacy in inhibiting cell viability: human kidney cancer, 50 nM; for efficacy in inhibiting cell viability / inhibition of cell viability: 48 hr; for inhibition of cell viability: human, 100 nM
Excerpt: FIG. 11: Effect of CIDEC and fragment peptides on human renal cancer cell (786-0) viability. [full-length CIDEC, #1, #2, #4, #5, #6=shorter fragment peptides of full-length CIDEC]; Cell: human renal cancer cells; Assay: Cell viability assay (Presto-Blue, Invitrogen); Doses (nM): 0, 50, 100; Treatment period (hr): 48.
as §1, §2, §3
A 1% (w/v) resazurin (Sigma-Aldrich) solution in 1×PBS was made and filter-sterilized. The final concentration of resazurin in the assay was 0.004%. Inside the proliferating cells mildly fluorescent blue resazurin is reduced to a bright pink fluorescent product called resorufin (stable for 4 hr), which is a quantitative measure of the percentage of proliferating cells. In all cases, cells were incubated at 37C/5% CO2 for 45-60 minutes for adequate sensitivity of detection. Briefly, cells were seeded at 10,000 cells/cm^2 into 96-well plates and transfected as described above. […]

cells = assay: Anti-cancer effect of FSP27 segment in cells
[4] = tested on: MCF-7 human breast cancer cells; assay: Cell viability assay (Presto-Blue / resazurin), MCF-7
Experimental: as §1, with “MALME-3 cells were grown in McCoy's medium (ATCC) supplemented with 15% FBS and 1× antibiotic-antimycotic. Cells were grown at 37C/5% CO2 in a humidified incubator. Media was replaced every third day.” left out
(§5) A resazurin based absorption assay was performed measuring cell proliferation, as a measure of inhibition of cell growth/viability. There are several commonly practiced assays using tetrazolium (MTT, MTS, XTT), or resazurin which give a quantitative reflection of cell viability. […] Proliferating cells can be quantified by spectrophotometric measurement of a bright pink fluorescent product called resorufin (stable for >4 hr) formed when mildly fluorescent blue resazurin enters a reducing intracellular environment characteristic of proliferating cells. […]

[5] = tested on: SK-MEL-28 human melanoma cells
[6] = tested on: PANC-1 human pancreatic ductal adenocarcinoma cells; assay: Cell viability assay (Presto-Blue / resazurin), PANC-1
Experimental: as §1, with “MALME-3 cells were grown in McCoy's medium (ATCC) supplemented with 15% FBS and 1× antibiotic-antimycotic. Cells were grown at 37C/5% CO2 in a humidified incubator. Media was replaced every third day.” left out
as §5

[7] = tested on: human normal fibroblast cells; assay: Cell viability assay (Presto-Blue / resazurin), normal fibroblasts; conditions: exposure to up to 100 nM CIDEC, 24 hr
Experimental: FIG. 6: Effect of CIDEC on human normal fibroblast cells; Cell: human normal fibroblast cells; Assay: Cell viability assay (Presto-Blue, Invitrogen); Doses (nM): 0, 50, 100 nM; Treatment period (hr): 24.
Human cancer cell lines (part of NCI-60 panel of human cancer cells)—SK-MEL-5 (melanoma), SK-MEL-28 (melanoma), MCF-7 (breast cancer), 786-0 (renal cancer), A498 (renal cancer), Hep-G2 (liver cancer), SK-HEP-1 (liver cancer), PANC-1 (pancreatic cancer), and normal human skin fibroblast cells MALME-3 cells were obtained from American Type Culture Collection (ATCC; Manassas, VA). […]
as §4

## COc1cccc2c1C(=O)c1c(O)c3c(c(O)c1C2=O)C[C@@](O)(C(=O)CO)C[C@@H]3O[C@H]1C[C@H](N)[C@H](O)[C@H](C)O1 [doxorubicin, reference compound]
[1]; Homo sapiens, HepG2, read-out: doxorubicin EC50 for HepG2
  EC50: 190 nM
[1]; doxorubicin 300 nM, in absence of CIDEC
  cells killed: > 90%

## YDLHCCGAKRIMKEAFRWALFSMQATGHVLLGTSCYLQQLLDATEEGQ (cysteines drawn unpaired) [Cf2]
[2]
  efficacy in inhibiting cell viability: highly efficacious
  inhibition of cell viability: 100%
[1]; 48 hr
  efficacy in inhibiting cell viability: highly efficacious
  inhibition of cell viability: 100%
[3]
  efficacy in inhibiting cell viability: highly efficacious
  inhibition of cell viability: 100%

## segment 120-140: segment of FSP27, amino acids 120-140; FIG. 13 discloses SEQ ID NO: 4, so possibly Cf4 (SEQGTRHPLSLSHKPAKKIDV)
cells
  efficacy towards anti-cancer effect in cells: maximum efficacy

## CC[C@H](C)[C@H](NC(=O)[C@H](CCCCN)NC(=O)[C@H](CCCCN)NC(=O)[C@H](C)NC(=O)[C@@H]1CCCN1C(=O)[C@H](CCCCN)NC(=O)[C@H](Cc1c[nH]cn1)NC(=O)[C@H](CO)NC(=O)[C@H](CC(C)C)NC(=O)[C@H](CO)NC(=O)[C@H](CC(C)C)NC(=O)[C@@H]1CCCN1C(=O)[C@H](Cc1c[nH]cn1)NC(=O)[C@H](CCCNC(=N)N)NC(=O)[C@@H](NC(=O)CNC(=O)[C@H](CCC(N)=O)NC(=O)[C@H](CCC(=O)O)NC(=O)[C@@H](N)CO)[C@@H](C)O)C(=O)N[C@@H](CC(=O)O)C(=O)N[C@H](C(=O)O)C(C)C [Cf4] (H-SEQGTRHPLSLSHKPAKKIDV-OH; N-terminus and C-terminus assumed)
[2]
  efficacy in inhibiting cell viability: highly efficacious
  inhibition of cell viability: 100%
[1]; 48 hr
  efficacy in inhibiting cell viability: highly efficacious
  inhibition of cell viability: 100%
[3]
  efficacy in inhibiting cell viability: highly efficacious
  inhibition of cell viability: 100%

B1: CIDEC: human full-length CIDEC (FSP27) protein, purchased from Abcam (protein, UniProt Q96AQ7 1-238, looked up)
chain: MEYAMKSLSLLYPKSLSRHVSVRTSVVTQQLLSEPSPKAPRARPCRVSTADRSVRKGIMAYSLEDLLLKVRDTLMLADKPFFLVLEEDGTTVETEEYFQALAGDTVFMVLQKGQKWQPPSEQGTRHPLSLSHKPAKKIDVARVTFDLYKLNPQDFIGCLNVKATFYDTYSLSYDLHCCGAKRIMKEAFRWALFSMQATGHVLLGTSCYLQQLLDATEEGQPPKGKASSLIPTCLKILQ
modifications: full-length
notes: human full-length CIDEC (FSP27) protein, purchased from Abcam
[4]; MCF-7, 0-400 nM CIDEC
  EC50: 187 nM
[4]; MCF-7, 24 hr, doses 0-400 nM, read-out: IC50, sigmoid inhibition curve of cell viability
  IC50: 187 nM
[5]; 50 nM CIDEC plus anti-cancer drugs, 48 hr
  improvement of drug effects in human melanoma: did not improve drug effects
[5]; SK-MEL-28, 24 hr, doses 0-400 nM, read-out: IC50, sigmoid inhibition curve of cell viability
  IC50: > 400 nM
[5]; SK-MEL-28, up to 400 nM CIDEC, read-out: EC50 (cell viability)
  EC50: > 400 nM
[5]; co-administration, 24 hr, doxorubicin 300 nM, vemurafenib 50 nM
  improvement of cell inhibition rate above that of doxorubicin or vemurafenib: did not improve the cell inhibition rate
[6]; PANC1, 0-400 nM CIDEC
  EC50: 132 nM
[6]; PANC-1, 24 hr, doses 0-400 nM, read-out: IC50, sigmoid inhibition curve of cell viability
  IC50: 132 nM
[7]
  decrease in cell viability of normal cells: no significant decrease in cell viability
[1]; 50 nM CIDEC plus anti-cancer drug, 48 hr
  effect on efficacy of sorafenib-tosylate against liver cancer: significant increase in efficacy
[1]; HepG2, 0-400 nM CIDEC, read-out: EC50 (dose that causes 50% decrease of cell viability)
  EC50: 65 nM
[1]; HepG2, 24 hr, doses 0-400 nM, read-out: IC50, sigmoid inhibition curve of cell viability
  IC50: 65 nM
[1]; co-administration of fl-CIDEC with sorafenib-tosylate (1000 nM), 24 hr
  decrease in cell viability of liver cancer cells treated with sorafenib-tosylate: 2 fold
[3]; 786-0, up to 400 nM CIDEC, read-out: EC50 (cell viability)
  EC50: > 400 nM
[3]; 786-O, 24 hr, doses 0-400 nM, read-out: IC50, sigmoid inhibition curve of cell viability
  IC50: > 400 nM
